{"source": "patent US8058242B2", "about": "“Chimeric proteins with natriuretic activity” (The University of Queensland, priority 2004, dated 2011)", "key": {"[1]": {"biological_target": "T1, Natriuretic Peptide Receptor-A (NPR-A) signaling in MDCK cells (Canis lupus familiaris, UniProt A0A8I3MHU3)", "T1 sequence (A0A8I3MHU3 32-1060)": "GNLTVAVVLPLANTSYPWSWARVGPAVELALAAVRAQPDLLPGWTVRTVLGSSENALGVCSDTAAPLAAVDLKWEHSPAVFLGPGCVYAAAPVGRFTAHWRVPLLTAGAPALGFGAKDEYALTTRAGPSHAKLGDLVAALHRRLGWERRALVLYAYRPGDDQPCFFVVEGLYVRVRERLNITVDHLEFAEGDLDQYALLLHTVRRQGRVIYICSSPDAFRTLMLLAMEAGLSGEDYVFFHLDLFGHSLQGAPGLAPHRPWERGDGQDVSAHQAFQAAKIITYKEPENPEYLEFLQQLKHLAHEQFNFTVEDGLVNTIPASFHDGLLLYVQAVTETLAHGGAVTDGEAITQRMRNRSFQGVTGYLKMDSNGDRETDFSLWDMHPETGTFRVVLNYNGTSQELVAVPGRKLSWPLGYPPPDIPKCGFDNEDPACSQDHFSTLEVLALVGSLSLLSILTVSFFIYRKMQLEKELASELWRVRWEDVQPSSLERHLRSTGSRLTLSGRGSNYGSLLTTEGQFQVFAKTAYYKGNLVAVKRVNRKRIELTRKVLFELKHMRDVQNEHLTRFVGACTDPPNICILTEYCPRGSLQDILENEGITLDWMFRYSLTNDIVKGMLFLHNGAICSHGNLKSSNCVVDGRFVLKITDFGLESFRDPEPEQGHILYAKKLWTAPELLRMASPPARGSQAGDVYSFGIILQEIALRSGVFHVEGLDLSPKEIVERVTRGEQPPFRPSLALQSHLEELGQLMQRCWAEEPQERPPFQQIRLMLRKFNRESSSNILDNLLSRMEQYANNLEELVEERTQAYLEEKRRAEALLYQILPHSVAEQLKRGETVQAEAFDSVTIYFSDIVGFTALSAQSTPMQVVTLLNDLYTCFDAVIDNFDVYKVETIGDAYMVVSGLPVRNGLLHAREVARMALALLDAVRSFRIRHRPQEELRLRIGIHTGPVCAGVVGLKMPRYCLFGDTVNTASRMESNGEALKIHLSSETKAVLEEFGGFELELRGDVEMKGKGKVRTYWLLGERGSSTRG", "format": "cell-based, canine", "conditions": "stimulation of cGMP accumulation in MDCK cells; for EC50: read-out: EC50 (M) ± Standard Error"}, "conscious rabbits": {"test_system": "conscious rabbits", "assay": "Blood pressure and heart rate in conscious rabbits, intravenous infusion dose-response (Example 8)"}, "[2]": {"conditions": "after 1 hour recovery period, Table 10A"}}, "note": "Positions of bridges follow the written chain, without caps; N, C: chain ends. Non-standard residues stand in square brackets, D forms with d. Residues, ends and D or L forms follow the SMILES beside them. Nle = CCCC[C@H](N)C(=O)O", "data": [{"molecule": "CC[C@H](C)[C@@H]1NC(=O)[C@H](CCCNC(=N)N)NC(=O)[C@H](CC(=O)O)NC(=O)[C@H]([C@@H](C)CC)NC(=O)[C@H](CCCCN)NC(=O)[C@H](Cc2c[nH]cn2)NC(=O)CNC(=O)[C@H](Cc2ccccc2)NC(=O)[C@@H](NC(=O)CNC(=O)[C@H](CC(N)=O)NC(=O)[C@@H]2CCCN2C(=O)[C@@H]2CCCN2C(=O)CNC(=O)[C@H](CCCCN)NC(=O)[C@H](CCCCN)NC(=O)[C@@H]2CCCN2C(=O)[C@@H]2CCCN2C(=O)[C@H](CCCCN)NC(=O)[C@H](CC(N)=O)NC(=O)[C@H](CC(=O)O)NC(=O)CN)CSSC[C@@H](C(=O)N[C@@H](CC(N)=O)C(=O)N[C@@H](CCCCN)C(=O)N[C@H](C(=O)N[C@@H](CC(=O)O)C(=O)N[C@@H](CC(=O)O)C(=O)N[C@@H](CC(N)=O)C(=O)N[C@@H](CCCCN)C(=O)NCC(=O)O)C(C)C)NC(=O)CNC(=O)[C@H](CC(C)C)NC(=O)CNC(=O)[C@H](CO)NC(=O)[C@H](Cc2c[nH]cn2)NC(=O)[C@H](CO)NC(=O)CNC1=O", "note": "[Lebetin] (H-GDNKPPKKGPPNGCFGHKIDRIGSHSGLGCNKVDDNKG-OH; disulfide 14-30; N-terminus and C-terminus assumed)", "values": [{"measurement": "−Log10 EC50 (pEC50) ± Standard Error", "setting": "[1]", "value": "7.637 ± 0.1619"}, {"measurement": "EC50", "setting": "[1]", "value": "2.67e-08", "unit": "M"}]}, {"molecule": "CCCC[C@H](NC(=O)[C@@H](NC(=O)[C@H](CCCNC(=N)N)NC(=O)[C@H](CC(N)=O)NC(=O)[C@@H]1CSSC[C@H](NC(=O)CNC(=O)[C@H](CC(N)=O)NC(=O)CNC(=O)[C@@H](NC(=O)[C@H](CCCCN)NC(=O)[C@H](CO)NC(=O)[C@H](CC(=O)O)NC(=O)[C@@H](N)CO)[C@@H](C)CC)C(=O)N[C@@H](Cc2ccccc2)C(=O)NCC(=O)N[C@@H](Cc2ccccc2)C(=O)N2CCC[C@H]2C(=O)N[C@@H](CC(C)C)C(=O)N[C@@H](CC(=O)O)C(=O)N[C@@H](CCCNC(=N)N)C(=O)N[C@@H]([C@@H](C)CC)C(=O)NCC(=O)N[C@@H](CO)C(=O)N[C@@H](C(C)C)C(=O)N[C@@H](CO)C(=O)NCC(=O)N[C@@H](CC(C)C)C(=O)NCC(=O)N1)[C@@H](C)CC)C(=O)N[C@@H](CCC(N)=O)C(=O)N[C@@H](CC(N)=O)C(=O)N1CCC[C@H]1C(=O)N1CCC[C@H]1C(=O)N[C@@H](CCCCN)C(=O)N[C@@H](CCCCN)C(=O)N[C@@H](Cc1ccccc1)C(=O)N[C@@H](CO)C(=O)NCC(=O)N[C@@H](CCC(=O)O)C(=O)O", "note": "[Nle-TNPc] (H-SDSKIGNGCFGFPLDRIGSVSGLGCNRI[Nle]QNPPKKFSGE-OH; disulfide 9-25; N-terminus assumed)", "values": [{"measurement": "−Log10 EC50 (pEC50) ± Standard Error", "setting": "[1]", "value": "6.497 ± 0.2017"}, {"measurement": "EC50", "setting": "[1]", "value": "3.99e-07", "unit": "M"}]}, {"molecule": "CC[C@H](C)[C@@H]1NC(=O)[C@H](CCCNC(=N)N)NC(=O)[C@H](CC(=O)O)NC(=O)[C@H]([C@@H](C)CC)NC(=O)[C@H](CCCCN)NC(=O)[C@H](Cc2c[nH]cn2)NC(=O)CNC(=O)[C@H](Cc2ccccc2)NC(=O)[C@@H](NC(=O)CNC(=O)[C@H](CC(=O)O)NC(=O)[C@@H]2CCCN2C(=O)[C@H](C)NC(=O)[C@H](CCCCN)NC(=O)[C@H](CCCCN)NC(=O)[C@H](CCCCN)NC(=O)[C@@H]2CCCN2C(=O)[C@@H]2CCCN2C(=O)[C@H](CCC(=O)O)NC(=O)[C@H](CC(N)=O)NC(=O)[C@H](CCC(=O)O)NC(=O)CN)CSSC[C@@H](C(=O)N[C@@H](CC(N)=O)C(=O)N[C@@H](CCCCN)C(=O)N[C@@H](Cc2ccccc2)C(=O)N[C@@H](CCCCN)C(=O)N2CCC[C@H]2C(=O)NCC(=O)N[C@@H](Cc2c[nH]cn2)C(=O)O)NC(=O)CNC(=O)[C@H](CC(C)C)NC(=O)CNC(=O)[C@H](CO)NC(=O)[C@H](Cc2c[nH]cn2)NC(=O)[C@H](CO)NC(=O)CNC1=O", "note": "[PNP, reference compound] (H-GENEPPKKKAPDGCFGHKIDRIGSHSGLGCNKFKPGH-OH; disulfide 14-30)", "values": [{"measurement": "−Log10 EC50 (pEC50) ± Standard Error", "setting": "[1]", "value": "6.660 ± 0.4500"}, {"measurement": "EC50", "setting": "[1]", "value": "3.47e-07", "unit": "M"}]}, {"molecule": "CC[C@H](C)[C@@H]1NC(=O)[C@H](CCCNC(=N)N)NC(=O)[C@H](CC(=O)O)NC(=O)[C@H](CC(C)C)NC(=O)[C@@H]2CCCN2C(=O)[C@H](Cc2ccccc2)NC(=O)CNC(=O)[C@H](Cc2ccccc2)NC(=O)[C@@H](NC(=O)CNC(=O)[C@H](C)NC(=O)[C@H](CO)NC(=O)[C@@H](NC(=O)[C@H](CCCCN)NC(=O)[C@H](CO)NC(=O)[C@H](CC(=O)O)NC(=O)[C@@H](N)CO)[C@@H](C)CC)CSSC[C@@H](C(=O)N[C@@H](CC(N)=O)C(=O)N[C@@H](CCCNC(=N)N)C(=O)N[C@H](C(=O)N[C@@H](CCSC)C(=O)N[C@@H](CCC(N)=O)C(=O)N[C@@H](CC(N)=O)C(=O)N2CCC[C@H]2C(=O)N2CCC[C@H]2C(=O)N[C@@H](CCCCN)C(=O)N[C@@H](CCCCN)C(=O)N[C@@H](Cc2ccccc2)C(=O)N[C@@H](CO)C(=O)NCC(=O)N[C@@H](CCC(=O)O)C(=O)O)[C@@H](C)CC)NC(=O)CNC(=O)[C@H](CC(C)C)NC(=O)CNC(=O)[C@H](CO)NC(=O)[C@H](C(C)C)NC(=O)[C@H](CO)NC(=O)CNC1=O", "note": "[Peptide A7S6-TNPc] (H-SDSKISAGCFGFPLDRIGSVSGLGCNRIMQNPPKKFSGE-OH; disulfide 9-25; N-terminus assumed)", "values": [{"measurement": "−Log10 EC50 (pEC50) ± Standard Error", "setting": "[1]", "value": "6.897 ± 0.2652"}, {"measurement": "EC50", "setting": "[1]", "value": "1.69e-07", "unit": "M"}]}, {"molecule": "CC[C@H](C)[C@H](NC(=O)[C@H](CCCCN)NC(=O)[C@H](CO)NC(=O)[C@H](CC(=O)O)NC(=O)[C@@H](N)CO)C(=O)NCC(=O)N[C@@H](CC(N)=O)C(=O)NCC(=O)N[C@H]1CSSC[C@@H](C(=O)N[C@@H](CC(N)=O)C(=O)N[C@@H](CCCNC(=N)N)C(=O)N2CCC[C@H]2C(=O)N[C@@H](CCSC)C(=O)N[C@@H](CCC(N)=O)C(=O)N[C@@H](CC(N)=O)C(=O)N2CCC[C@H]2C(=O)N2CCC[C@H]2C(=O)N[C@@H](CCCCN)C(=O)N[C@@H](CCCCN)C(=O)N[C@@H](Cc2ccccc2)C(=O)N[C@@H](CO)C(=O)NCC(=O)N[C@@H](CCC(=O)O)C(=O)O)NC(=O)CNC(=O)[C@H](CC(C)C)NC(=O)CNC(=O)[C@H](CO)NC(=O)[C@H](C(C)C)NC(=O)[C@H](CO)NC(=O)CNC(=O)[C@H]([C@@H](C)CC)NC(=O)[C@H](CCCNC(=N)N)NC(=O)[C@H](CC(=O)O)NC(=O)[C@H](CC(C)C)NC(=O)[C@@H]2CCCN2C(=O)[C@H](Cc2ccccc2)NC(=O)CNC(=O)[C@H](Cc2ccccc2)NC1=O", "note": "[Peptide I28P-TNPc] (H-SDSKIGNGCFGFPLDRIGSVSGLGCNRPMQNPPKKFSGE-OH; disulfide 9-25; N-terminus assumed)", "values": [{"measurement": "−Log10 EC50 (pEC50) ± Standard Error", "setting": "[1]", "value": "5.995 ± 0.2450"}, {"measurement": "EC50", "setting": "[1]", "value": "1.19e-06", "unit": "M"}]}, {"molecule": "SDSKIGNGCFGFPLDHIGSVSGLGCNRIMQNPPKKFSGE (A portion of a natriuretic peptide) [TNPc R16H]", "values": [{"measurement": "Recovery (MAP)", "setting": "conscious rabbits; [2]", "value": 67.6, "unit": "mm Hg"}, {"measurement": "Recovery Delta SED (MAP)", "setting": "conscious rabbits; [2]", "value": "2.0 ± 3.9", "unit": "mm Hg"}, {"measurement": "reduction of MAP compared to vehicle, in words", "setting": "conscious rabbits; highest dose", "value": "did significantly reduce MAP"}, {"measurement": "MAP at final dose", "setting": "conscious rabbits; highest dose, Table 10A", "value": 65.6, "unit": "mm Hg"}, {"measurement": "Treatment Effect, change of mean blood pressure during the infusion", "setting": "conscious rabbits; highest dose, Table 10A, groups 1, 2A and 3", "value": "−7.3", "unit": "mm Hg"}]}]}
